Assay results published in patent US20230094922A1, “METHODS OF THERAPEUTIC PROGNOSTICATION” (GENETIKAPLUS LTD., priority 2020, published 2023).

Tested on: iPSC-derived cortical neurons
Assay: RNA sequencing, differential gene expression: Bupropion-treated vs vehicle-only induced neurons (Tables 5, 6)
Assay type: cell-based, human
Method: iPSC differentiation into neurons-iPSCs were seeded at a density of 3×10^6 cells/well on a hESC-qualified Matrigel pre-coated 6-well plate and incubated at 37° C., 5% CO2 overnight. Differentiation was initiated the following day (day 0) after verifying that 100% confluency was reached. Differentiation media was added daily according to the following order: […]7 (day 15 onward) similar to a previously published protocol developed by for rapid differentiation to cortical neurons. The components of the described media, Q1-7, are provided in Appendix 1. Cells were assessed for differentiation efficiency and cell death on a daily basis. On day 9, differentiated neurons were re-plated on either 96-well plates (destined for staining) or 12-well plates (destined for RNA extraction) that were coated with 15 μg/mL Poly-ornithine diluted in PBS (overnight incubation at 37° C.), followed by 1 μg/mL Laminin and 2 μg/mL Fibronectin diluted in PBS (overnight incubation at 37° C.): Neurons were first rinsed with pre-warmed PBS and 1 ml/well of Accutase was added for 35 minutes at 37° C., 5% CO2. DNAse1 (0.5 mg/mL) was then added for 10 additional minutes. 3 ml of pre-warmed Neurobasal media was added to each well and neurons were gently collected using a 5 ml […]. Wells were then verified for the presence of any remaining neurons. Neurons were spun down and resuspended in Q6 media. Neurons were seeded at a density of 150,000 cells/cm^2 placed back at 37° C. Following four hours of incubation, media was changed to Q6 media (150 μl per 96-well and 1 ml per 12-well). […] RNA-sequencing samples were aligned to the GRCh38 reference genome using STAR aligner. TMM normalization of RNA read counts and differential gene expression analysis were carried out using edgeR. […] Cells were reprogrammed into iPSCs, following which iPSCs were differentiated into frontal cortical neuronal cells (see Materials and Methods). […] Another dose of drug or control was also administered at day 32. At day 35 neurons were either fixed for histological examination or isolated for RNA extraction.

[1] = 10 μM Bupropion vs vehicle, responder-derived neurons, day 35, PValue NS (not significant)
[2] = Bupropion vs vehicle only, p<0.05, over 60,000 genes probed

Compound: CC(NC(C)(C)C)C(=O)c1cccc(Cl)c1 (stereo not drawn) [Bupropion, 3-Chloro-N-tert-butyl-β-keto-α-methylphenethylamin]
- logFC NFKBID expression (10 μM Bupropion vs vehicle, responder-derived neurons, day 35, PValue 0.003685448): −0.6042
- logFC TCF7 expression (10 μM Bupropion vs vehicle, responder-derived neurons, day 35, PValue 0.005666754): −0.3904
- logFC DUSP23 expression (10 μM Bupropion vs vehicle, responder-derived neurons, day 35, PValue 0.006214757): −0.4927
- logFC TENT5B expression (10 μM Bupropion vs vehicle, responder-derived neurons, day 35, PValue 0.008132328): −0.8021
- logFC UGT3A2 expression (10 μM Bupropion vs vehicle, responder-derived neurons, day 35, PValue 0.009321582): −0.4889
- logFC CCDC51 expression (10 μM Bupropion vs vehicle, responder-derived neurons, day 35, PValue 0.012079592): −0.2443
- logFC CTNS expression (10 μM Bupropion vs vehicle, responder-derived neurons, day 35, PValue 0.013463621): −0.2404
- logFC PYCARD expression (10 μM Bupropion vs vehicle, responder-derived neurons, day 35, PValue 0.013981248): −1.05
- logFC ABHD4 expression (10 μM Bupropion vs vehicle, responder-derived neurons, day 35, PValue 0.014582448): −0.3111
- logFC PTPRQ expression (10 μM Bupropion vs vehicle, responder-derived neurons, day 35, PValue 0.018081564): 0.89
- logFC SMPDL3B expression (10 μM Bupropion vs vehicle, responder-derived neurons, day 35, PValue 0.022812161): −0.7488
- logFC KLC3 expression (10 μM Bupropion vs vehicle, responder-derived neurons, day 35, PValue 0.023692875): −0.8533
- logFC PNKP expression (10 μM Bupropion vs vehicle, responder-derived neurons, day 35, PValue 0.024437941): −0.2172
- logFC SPNS1 expression (10 μM Bupropion vs vehicle, responder-derived neurons, day 35, PValue 0.024838304): −0.7022
- logFC FAM117A expression (10 μM Bupropion vs vehicle, responder-derived neurons, day 35, PValue 0.025868873): −0.2485
- logFC PPL expression (10 μM Bupropion vs vehicle, responder-derived neurons, day 35, PValue 0.026069274): −0.3932
- logFC ZNF425 expression (10 μM Bupropion vs vehicle, responder-derived neurons, day 35, PValue 0.026180649): −0.2317
- logFC MT2A expression (Table 6, downregulated) (10 μM Bupropion vs vehicle, responder-derived neurons, day 35, PValue 0.02632325): −0.7705
- logFC COX16 expression (10 μM Bupropion vs vehicle, responder-derived neurons, day 35, PValue 0.026606667): 0.3985
- logFC RSAD2 expression (10 μM Bupropion vs vehicle, responder-derived neurons, day 35, PValue 0.026606947): 0.9753
- logFC PPP1R1B expression (10 μM Bupropion vs vehicle, responder-derived neurons, day 35, PValue 0.026677416): −0.677
- logFC LLPH expression (10 μM Bupropion vs vehicle, responder-derived neurons, day 35, PValue 0.026874183): 0.1758
- logFC CKS1B expression (10 μM Bupropion vs vehicle, responder-derived neurons, day 35, PValue 0.02807621): −0.3153
- logFC LGR6 expression (10 μM Bupropion vs vehicle, responder-derived neurons, day 35, PValue 0.028853165): −0.6091
- logFC TSTD2 expression (10 μM Bupropion vs vehicle, responder-derived neurons, day 35, PValue 0.028984217): 0.1932
- logFC HS3ST5 expression (10 μM Bupropion vs vehicle, responder-derived neurons, day 35, PValue 0.028999172): 0.5251
- logFC ART5 expression (10 μM Bupropion vs vehicle, responder-derived neurons, day 35, PValue 0.030155652): −0.5082
- logFC ADRA2B expression (10 μM Bupropion vs vehicle, responder-derived neurons, day 35, PValue 0.031233579): −0.7451
- logFC ZNF394 expression (10 μM Bupropion vs vehicle, responder-derived neurons, day 35, PValue 0.031885505): −0.1977
- logFC CHMP4A expression (10 μM Bupropion vs vehicle, responder-derived neurons, day 35, PValue 0.031923817): 0.3939
- logFC ETV5 expression (10 μM Bupropion vs vehicle, responder-derived neurons, day 35, PValue 0.031953602): −0.2432
- logFC VWA2 expression (10 μM Bupropion vs vehicle, responder-derived neurons, day 35, PValue 0.033110679): −0.8249
- logFC CDC42BPG expression (10 μM Bupropion vs vehicle, responder-derived neurons, day 35, PValue 0.034205433): −0.6386
- logFC PSD3 expression (10 μM Bupropion vs vehicle, responder-derived neurons, day 35, PValue 0.034363174): 0.2947
- logFC TRAF3IP2 expression (10 μM Bupropion vs vehicle, responder-derived neurons, day 35, PValue 0.035638975): −0.342
- logFC TXNRD2 expression (10 μM Bupropion vs vehicle, responder-derived neurons, day 35, PValue 0.036129679): −0.3971
- logFC RAB43 expression (10 μM Bupropion vs vehicle, responder-derived neurons, day 35, PValue 0.036339642): −0.7667
- logFC APOE expression (10 μM Bupropion vs vehicle, responder-derived neurons, day 35, PValue 0.036466348): −0.4756
- logFC TYW1B expression (10 μM Bupropion vs vehicle, responder-derived neurons, day 35, PValue 0.037441749): −0.2836
- logFC ARL17B expression (10 μM Bupropion vs vehicle, responder-derived neurons, day 35, PValue 0.037774775): 0.4487
- logFC TOM1 expression (10 μM Bupropion vs vehicle, responder-derived neurons, day 35, PValue 0.039328923): −0.2212
- logFC FGF1 expression (10 μM Bupropion vs vehicle, responder-derived neurons, day 35, PValue 0.040753088): 0.7441
- logFC GPR89A expression (10 μM Bupropion vs vehicle, responder-derived neurons, day 35, PValue 0.040776978): −0.3135
- logFC HAUS8 expression (10 μM Bupropion vs vehicle, responder-derived neurons, day 35, PValue 0.040813288): −0.3377
- logFC TNNI3 expression (10 μM Bupropion vs vehicle, responder-derived neurons, day 35, PValue 0.04085042): −0.4473
- logFC INMT expression (10 μM Bupropion vs vehicle, responder-derived neurons, day 35, PValue 0.04107423): 0.8156
- logFC LHFPL3 expression (10 μM Bupropion vs vehicle, responder-derived neurons, day 35, PValue 0.041076888): 0.8454
- logFC TJP3 expression (10 μM Bupropion vs vehicle, responder-derived neurons, day 35, PValue 0.041258334): −0.4285
- logFC RNASEK expression (10 μM Bupropion vs vehicle, responder-derived neurons, day 35, PValue 0.041364592): −0.4148
- logFC MACROD1 expression (10 μM Bupropion vs vehicle, responder-derived neurons, day 35, PValue 0.041485982): −0.4078
- logFC DDX55 expression (10 μM Bupropion vs vehicle, responder-derived neurons, day 35, PValue 0.041521555): −0.177
- logFC MAP4K1 expression (10 μM Bupropion vs vehicle, responder-derived neurons, day 35, PValue 0.041777603): −0.4541
- logFC MADCAM1 expression (10 μM Bupropion vs vehicle, responder-derived neurons, day 35, PValue 0.042721026): −0.6346
- logFC NMRK2 expression (10 μM Bupropion vs vehicle, responder-derived neurons, day 35, PValue 0.042934722): −0.915
- logFC RARRES2 expression (10 μM Bupropion vs vehicle, responder-derived neurons, day 35, PValue 0.044126316): −0.5614
- logFC GABRD expression (10 μM Bupropion vs vehicle, responder-derived neurons, day 35, PValue 0.044432972): −0.661
- logFC SCN9A expression (10 μM Bupropion vs vehicle, responder-derived neurons, day 35, PValue 0.044462789): 0.653
- logFC CTSD expression (10 μM Bupropion vs vehicle, responder-derived neurons, day 35, PValue 0.044610728): −0.3042
- logFC MINDY3 expression (10 μM Bupropion vs vehicle, responder-derived neurons, day 35, PValue 0.044932218): 0.1907
- logFC FBXO2 expression (10 μM Bupropion vs vehicle, responder-derived neurons, day 35, PValue 0.044969345): −0.5297
- logFC MT1X expression (10 μM Bupropion vs vehicle, responder-derived neurons, day 35, PValue 0.045842417): −0.6858
- logFC LRRC2 expression (10 μM Bupropion vs vehicle, responder-derived neurons, day 35, PValue 0.045853063): −0.8234
- logFC ZFP69B expression (10 μM Bupropion vs vehicle, responder-derived neurons, day 35, PValue 0.046824204): 0.2565
- logFC SLC45A2 expression (10 μM Bupropion vs vehicle, responder-derived neurons, day 35, PValue 0.046871029): −1.05
- logFC KLHL21 expression (10 μM Bupropion vs vehicle, responder-derived neurons, day 35, PValue 0.047318696): −0.2723
- logFC RILPL1 expression (10 μM Bupropion vs vehicle, responder-derived neurons, day 35, PValue 0.047560251): −0.1692
- logFC PSMB10 expression (10 μM Bupropion vs vehicle, responder-derived neurons, day 35, PValue 0.048107795): −0.5669
- logFC LHPP expression (10 μM Bupropion vs vehicle, responder-derived neurons, day 35, PValue 0.048445403): −0.2669
- logFC RABEP2 expression (10 μM Bupropion vs vehicle, responder-derived neurons, day 35, PValue 0.049224822): −0.2496
- logFC LARGE2 expression (10 μM Bupropion vs vehicle, responder-derived neurons, day 35, PValue 0.049340025): −0.566
- logFC ZNF221 expression (10 μM Bupropion vs vehicle, responder-derived neurons, day 35, PValue 0.049596306): 0.3254
- logFC LIN37 expression (10 μM Bupropion vs vehicle, responder-derived neurons, day 35, PValue 3.06E−05): −0.8411
- logFC APOL1 expression [1]: −0.7489
- logFC ATP8B4 expression [1]: −0.6945
- logFC CA3 expression [1]: 0.6571
- logFC CDK6 expression [1]: 0.2579
- logFC CORT expression [1]: 0.6431
- logFC CXCL11 expression (Table 6, downregulated) [1]: −1.176
- logFC ESR2 expression [1]: 0.4833
- logFC GOLGA8H expression [1]: −0.565
- logFC GRPR expression [1]: 0.6268
- logFC MT1E expression [1]: 2.123
- logFC MT2A expression (Table 5, upregulated) [1]: 1.378
- logFC PITX2 expression [1]: 0.9302
- logFC SEPTIN5 expression [1]: 0.5877
- number of genes significantly downregulated in responders after treatment, but not in non-responders [2]: 57 genes
- number of genes significantly upregulated in responders after treatment, but not in non-responders [2]: 18 genes
